Series [1] concerns the target T1, 3α-HSD (Rattus norvegicus, UniProt P23457).
T1 construct: the purified 3α-HSD of rat liver cytosol; from tissue; host or cells: rat liver (cytosol)
T1 sequence (P23457 1-322): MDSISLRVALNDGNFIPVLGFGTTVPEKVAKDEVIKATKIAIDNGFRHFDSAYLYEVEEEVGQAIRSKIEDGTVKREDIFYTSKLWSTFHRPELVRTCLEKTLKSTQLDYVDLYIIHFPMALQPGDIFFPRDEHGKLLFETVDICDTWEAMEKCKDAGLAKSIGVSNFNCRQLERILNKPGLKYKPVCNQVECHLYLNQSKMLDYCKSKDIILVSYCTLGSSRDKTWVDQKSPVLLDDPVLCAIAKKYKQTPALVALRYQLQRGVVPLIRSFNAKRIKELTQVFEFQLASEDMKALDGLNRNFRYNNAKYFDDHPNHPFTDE
The series can be described thus: time dependent inactivation of purified 3α-HSD. In kind it is biochemical. The conditions noted are these: for inactivation of 3α-HSD: result in words; for return of enzyme activity after inactivation: gel filtration or extensive dialysis of the inactivated enzyme. How it is done: 3α-HSD (24 μM of purified enzyme) was incubated in systems (30 μl) containing 1.2 mM NAD^+, 10 mM potassium phosphate buffer pH 7.0, 1 mM EDTA and 5% acetonitrile as a co-solvent. Enzyme activity was followed over time by diluting an aliquot of the incubation mixture into a 1 ml assay containing: 2.3 mM NAD^+ and 75 μM androsterone in 0.1M potassium phosphate buffer pH 7.0, with 4% acetonitrile as a co-solvent. Initial rates were determined spectrophotometrically by measuring the rate of NADH formation at 340 nm. Because of the 100 fold or greater dilution of the enzyme into the assay, the initial rate measured is an indication of the enzyme activity remaining at that time. Semi-log plots of the amount of enzyme remaining vs. time are curvilinear (panel a). Initial rates of inactivation (kapp's) were estimated by taking tangents to these curves. Data was replotted as 1/kapp vs 1/allylic alcohol from which kinact (the rate constant for enzyme inactivation) and Ki (the binding constant of the allylic alcohol) were determined, (panel b).
Inactivation of 3α-HSD (24 μM) was conducted in incubations (60 μl) of 10 mM potassium phosphate buffer pH 7.0 containing 1 mM EDTA and 4% acetonitrile as a co-solvent. After the initial enzyme activity was determined (see the legend of FIG. 2 for assay composition), the concentration of inactivator indicated (.cndot.=0 μM, .circle.=2.1 μM, =4.9 μM, .gradient.=10.0 μM, =15.0 μM, []24.0 μM) was added and the sample incubated at 25° C. Over time, samples were withdrawn and diluted into the standard assay to determine the amount of enzyme activity remaining. A secondary plot of the amount of enzyme inactivated vs. the amount of inhibitor added provided the stoichiometry of inactivation when corrected for nonspecific loss of enzyme activity (panel b). The continuous line without points is a theoretical line for a stoichiometry of 1:1.

Series [2] addresses T1, 3α-HSD. The series can be described thus: steady state kinetic measurements and protection from inactivation of 3α-HSD. In kind it is biochemical. To be noted: for type of inhibition versus NAD+ binding / type of inhibition versus androsterone binding: steady state kinetic measurements. From the text: (§1) Three types of experimental evidence indicate that both the enone (III) and the acetylenic ketone (IV) alkylate the pyridine nucleotide binding domain in preference to the steroid binding site of the enzyme. […] Third, chromatographic experiments using the immobilized nucleotide analog Cibacron Blue indicate that both native enzyme and enzyme inactivated with the steroid affinity alkylator, 17β-bromoacetoxy-5α-androstan-17β-ol-3-one, bind tightly to the immobilized nucleotide analog. By contrast, enzyme inactivated by either (III) or (IV) has no affinity for the immobilized nucleotide analogue. This experimental evidence implies that the alkylators (III) and (IV) covalently modify the nucleotide binding domain of 3α-HSD.

In series [3] the target is T1, 3α-HSD. The series can be described thus: chromatography of inactivated 3α-HSD on the immobilized nucleotide analog Cibacron Blue. Format: binding.
Excerpt: as §1

The target in series [4] is T2, cyclooxygenase (Ovis aries, UniProt P05979).
T2 construct: cyclooxygenase obtained from sheep seminal vesicle microsomes; from tissue; host or cells: sheep seminal vesicle microsomes
T2 sequence (P05979 25-600): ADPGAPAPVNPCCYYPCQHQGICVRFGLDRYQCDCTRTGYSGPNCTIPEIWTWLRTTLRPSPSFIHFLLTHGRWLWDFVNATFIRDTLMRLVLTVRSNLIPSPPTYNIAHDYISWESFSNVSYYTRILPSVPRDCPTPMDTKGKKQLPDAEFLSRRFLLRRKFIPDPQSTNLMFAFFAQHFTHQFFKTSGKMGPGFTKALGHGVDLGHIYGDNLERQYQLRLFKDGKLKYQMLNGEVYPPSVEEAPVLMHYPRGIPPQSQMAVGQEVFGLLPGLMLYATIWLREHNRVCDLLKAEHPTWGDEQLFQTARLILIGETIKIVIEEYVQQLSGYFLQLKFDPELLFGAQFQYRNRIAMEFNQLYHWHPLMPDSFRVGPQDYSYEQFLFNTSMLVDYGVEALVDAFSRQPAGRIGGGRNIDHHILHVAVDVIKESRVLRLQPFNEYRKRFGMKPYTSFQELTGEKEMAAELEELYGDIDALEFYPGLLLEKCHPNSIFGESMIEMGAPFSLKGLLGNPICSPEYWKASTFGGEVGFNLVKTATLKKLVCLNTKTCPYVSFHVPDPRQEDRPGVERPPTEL
The series can be described thus: time dependent inactivation of semi-purified cyclooxygenase (oxygen consumption). Format: biochemical, sheep. The conditions noted are these: for inactivation of cyclooxygenase / prostaglandin synthases: result in words. Here is the method: Semi-purified cyclooxygenase (480 μg) was pre-incubated in 100 μl systems containing the inhibitor concentrations indicated, along with 50 mM Tris-HCl (pH=7.2), 100 μM EDTA, 1 mM phenol, 1 μM hematin, 1% Tween, and 10% DMSO. At the time intervals shown, 5 μl aliquots were removed and diluted into a 600 μl assay system containing 100 mM potassium phosphate (pH=7.2), 1 mM phenol, and 100 μM arachidonic acid. The rate of oxygen consumption was then measured. The maximum rate of oxygen uptake observed in these assays was 1.875 μmoles of oxygen consumed per minute per milligram protein.

In series [5] the test system is 3α-HSD and 3(17)β-HSD (Pseudomonas testosteroni), 3α,20α-HSD (Streptomyces hydrogenase), 20α-HSD (rat ovary), 3β-HSD (rat liver), alcohol dehydrogenase …. The series is described as follows: broad screen of the alcohols as suicide substrates of dehydrogenases. Format: biochemical. The conditions noted are these: eight dehydrogenases screened. How it is done:
A broad screen was conducted in which the allylic (I) and acetylenic alcohols (II) were examined as suicide substrates of the following enzymes: 3α-HSD and 3(17)β-HSD (Pseudomonas testosteroni), 3α,20α-HSD (Streptomyces hydrogenase), 20α-HSD (rat ovary), 3β-HSD (rat liver), alcohol dehydrogenase (yeast), lactate dehydrogenase (porcine heart) and 3α-HSD (rat liver).

Substrate in series [6]: C#CC(O)c1ccc([N+](=O)[O-])cc1
The series is described as follows: enzymatic oxidation of the allylic and acetylenic alcohols by 3α-HSD in the presence of NAD+. In kind it is biochemical, rat. To be noted: other: oxidation by 3α-HSD in the presence of NAD+; pH 7.0; 25.0 °C.

Substrate in series [7]: C=CC(O)c1ccc([N+](=O)[O-])cc1
The series is described as above. Format: biochemical, rat. The conditions noted are these: other: oxidation by 3α-HSD in the presence of NAD+; pH 7.0; 25.0 °C.

The term Vmax denotes the top rate of the reaction or transport when substrate is in excess. The Km is the concentration of substrate that gives half-maximal velocity.

“Also recorded” adds a separate entry of the source. Where only a bound is given, the exact number is not on record here.

On to `C=CC(=O)c1ccc([N+](=O)[O-])cc1` [III, 1-(4'-nitrophenyl)-2-propen-1-one], for which the “inactivation of 3α-HSD” value in series [1] was “stoichiometric inactivators; also recorded: too fast to accurately measure; also recorded: rapid and stoichiometric”. Moreover, in series [2], the “protection of 3α-HSD from inactivation by NAD+” value is reported as “complete protection”; the “protection of 3α-HSD from inactivation by androsterone and other compounds competitive for the steroid binding site” value is given as “slow the rate of inactivation but do not completely block this event”; the “type of inhibition versus NAD+ binding” value is “competitive inhibitors”; the “type of inhibition versus androsterone binding” value is “non-competitive or mixed inhibitors”. The “binding of the inactivated enzyme to the immobilized nucleotide analog” value (“binding … to the immobilized nucleotide analog” for short) in series [3] is “no affinity”. Moreover, the “inactivation of cyclooxygenase / prostaglandin synthases” value in series [4] is given as “irreversibly inactivate prostaglandin synthases in a time dependent manner”. Besides, the “inactivation of cyclooxygenase / prostaglandin synthases” value in series [4] (listed as iii) is “time and concentration dependent inactivation”. The “t1/2 life at saturation” value in series [4] (semi-purified cyclooxygenase from sheep seminal vesicle microsomes) fell in the range of 60 to 120 s. Moreover, the IC50 in series [4] (semi-purified cyclooxygenase from sheep seminal vesicle microsomes, read-out: concentration required to inactivate 50% of the enzyme activity) amounted to 837 µM.
For `C#CC(=O)c1ccc([N+](=O)[O-])cc1` [IV, 1-(4'-nitrophenyl)-2-propyn-1-one], the “inactivation of 3α-HSD” value in series [1] was “stoichiometric inactivators; also recorded: rapid and stoichiometric”. In series [2], the “protection of 3α-HSD from inactivation by NAD+” value was “complete protection”; the “protection of 3α-HSD from inactivation by androsterone and other compounds competitive for the steroid binding site” value is given as “slow the rate of inactivation but do not completely block this event”; the “type of inhibition versus NAD+ binding” value was “competitive inhibitors”; the “type of inhibition versus androsterone binding” value is “non-competitive or mixed inhibitors”. The “binding … to the immobilized nucleotide analog” value in series [3] was “no affinity”. In addition, in series [4], the “inactivation of cyclooxygenase / prostaglandin synthases” value is reported as “irreversibly inactivate prostaglandin synthases in a time dependent manner”. Also, the “inactivation of cyclooxygenase / prostaglandin synthases” value in series [4] (listed as iv) is “time and concentration dependent inactivation”.
With `C#CC(O)c1ccc([N+](=O)[O-])cc1` (stereo not drawn) [II, 1-(4'-nitrophenyl)-2-propyn-1-ol], in series [1], the “return of enzyme activity after inactivation” value is “enzyme activity does not return” and the “inactivation of 3α-HSD” value is given as “highly selective mechanism-based inactivators”. Besides, the “selectivity as suicide substrate among the screened enzymes” value in series [5] is on record as “only rat liver 3α-HSD effectively oxidized the alcohols”.
As to `C[C@]12CCC(=O)C[C@@H]1CC[C@@H]1[C@@H]2CC[C@]2(C)[C@@H](OC(=O)CBr)CC[C@@H]12` [17β-bromoacetoxy-5α-androstan-17β-ol-3-one, reference compound], the “binding … to the immobilized nucleotide analog” value in series [3] is listed as “bind tightly”.
On to `C=CC(O)c1ccc([N+](=O)[O-])cc1` (stereo not drawn) [I, 1-(4'-nitrophenyl)-2-propen-1-ol], for which, in series [1] (at a saturating allylic alcohol concentration), the “t1/2 life for the enzyme” value was 8 s. Besides, the “molecules of the allylic alcohol oxidized for every molecule of enzyme inactivated” value in series [1] (comparison of the rate of oxidation with that of enzyme inactivation) is listed as no more than 10 molecules. In addition, the partition ratio kcat/kinact in series [1] (estimated, theoretical limit 1) is 5.3. Besides, in series [1], the “return of enzyme activity after inactivation” value is listed as “enzyme activity does not return” and the “inactivation of 3α-HSD” value is on record as “highly selective mechanism-based inactivators; also recorded: time-dependent loss of 3α-HSD activity”. The Ki in series [1] (method of Kitz and Wilson, in the presence of NAD+) was determined as 1200 µM. The “selectivity as suicide substrate among the screened enzymes” value in series [5] is “only rat liver 3α-HSD effectively oxidized the alcohols”.
In turn, `CC(=O)Oc1ccccc1C(=O)O` [acetyl salicylate, reference compound] yielded a cyclooxygenase inactivated in series [4] (100 μM, over 20 hours) of 50%.

B1: 3α-HSD (Rattus norvegicus) (protein)
chain: MDSISLRVALNDGNFIPVLGFGTTVPEKVAKDEVIKATKIAIDNGFRHFDSAYLYEVEEEVGQAIRSKIEDGTVKREDIFYTSKLWSTFHRPELVRTCLEKTLKSTQLDYVDLYIIHFPMALQPGDIFFPRDEHGKLLFETVDICDTWEAMEKCKDAGLAKSIGVSNFNCRQLERILNKPGLKYKPVCNQVECHLYLNQSKMLDYCKSKDIILVSYCTLGSSRDKTWVDQKSPVLLDDPVLCAIAKKYKQTPALVALRYQLQRGVVPLIRSFNAKRIKELTQVFEFQLASEDMKALDGLNRNFRYNNAKYFDDHPNHPFTDE
notes: the purified 3α-HSD of rat liver cytosol; from tissue; host or cells: rat liver (cytosol)
Take B1: in series [6], the maximal velocity (Vmax) turned out to be 0.3 µmol/min/mg. In addition, in series [7], the Km was found to be 2020 µM and the Vmax was found to be 0.58 µmol/min/mg.

Values taken from patent publication US5399790A, “Non-steroid and non-prostanoid inhibitors of steroid and prostaglandin transforming enzymes” (Trustees of The University of Pennsylvania, priority 1993, dated 1995).
